These results are taken from EP0655506B1 (priority 1994, dated 1995).

The target in the first assay is T1, Taq DNA polymerase (unmodified DNA polymerase from Thermus aquaticus) (Thermus aquaticus, UniProt P19821).
T1 construct: to the gene that produces the full length Taq DNA polymerase; made in house
T1 sequence (P19821 whole entry): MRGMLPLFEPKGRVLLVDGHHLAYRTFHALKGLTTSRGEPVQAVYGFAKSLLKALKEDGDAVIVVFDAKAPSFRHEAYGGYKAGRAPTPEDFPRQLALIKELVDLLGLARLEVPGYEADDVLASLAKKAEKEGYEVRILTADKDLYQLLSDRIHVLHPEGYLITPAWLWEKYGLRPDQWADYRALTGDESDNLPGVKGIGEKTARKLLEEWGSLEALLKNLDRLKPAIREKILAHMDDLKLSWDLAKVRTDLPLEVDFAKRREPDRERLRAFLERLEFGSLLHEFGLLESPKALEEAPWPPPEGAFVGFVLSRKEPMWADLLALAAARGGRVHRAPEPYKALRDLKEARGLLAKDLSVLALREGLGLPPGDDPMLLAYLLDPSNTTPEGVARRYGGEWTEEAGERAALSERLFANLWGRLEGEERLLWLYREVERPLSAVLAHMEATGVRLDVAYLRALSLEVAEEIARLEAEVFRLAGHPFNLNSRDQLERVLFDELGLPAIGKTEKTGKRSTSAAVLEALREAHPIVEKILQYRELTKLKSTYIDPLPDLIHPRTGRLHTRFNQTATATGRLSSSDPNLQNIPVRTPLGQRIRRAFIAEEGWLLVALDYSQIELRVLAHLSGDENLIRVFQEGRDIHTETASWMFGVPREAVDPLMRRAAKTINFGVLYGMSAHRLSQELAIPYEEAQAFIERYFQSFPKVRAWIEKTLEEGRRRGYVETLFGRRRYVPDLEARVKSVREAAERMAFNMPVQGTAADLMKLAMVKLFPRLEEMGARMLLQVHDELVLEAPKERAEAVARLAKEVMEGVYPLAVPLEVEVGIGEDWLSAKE
The assay can be described thus: Gel electrophoresis-based rate of incorporation of dideoxynucleotides relative to deoxynucleotides, varying the ratio of dNTPs to ddNTPs (Example 7). Format: biochemical. The following applies: 10 µM 4 dNTPs, ddNTP 100 to 2,000 µM; ddNTP:dNTP ratio giving fragments comparable to Taq DNA polymerase F667Y, multiplied by its Example 6 ratio. How it is done: (§1) This example is similar to that described in Example 6. While it is the preferred test for DNA polymerases that discriminate strongly against the incorporation of dideoxynucleotides (e.g. T7 DNA polymerase Y526F, E. coli DNA polymerase I and Taq DNA polymerase), it also works well with DNA polymerases that efficiently incorporate ddNMPs (e.g. T7 DNA polymerase, E. coli DNA polymerase I mutant F762Y and Taq DNA polymerase mutant F667Y).
(§2) The average length of a series of fragments is determined in one of two ways. […] The position of the front marking the appearance of visible radioactive bands is usually relatively sharp and readily observed by eye. However, it is also possible to determine such positions more precisely using the Phosphoimager to locate the position in each lane where a certain threshold of radioactivity per unit area occurs, starting at the top of the gel and moving down the gel.
(§3) Some DNA polymerases discriminate very strongly against the incorporation of dideoxynucleotides, in which case it is difficult to add sufficient ddNTPs to the reaction to clearly detect the position of the largest dideoxy-terminated fragments on a denaturing polyacrylamide gel. For such DNA polymerases, one can use an alkaline agarose gel electrophoresis to compare the lengths of the dideoxy-terminated fragments in the different series.
(§4) These tests were carried out using the six DNA polymerases described in Example 6. The reaction conditions were identical to that described in Example 6 except for the concentrations of dNTPs and ddNTPs. All reaction mixtures contained 10 µM 4 dNTPs. Each of the four ddNTP concentrations were varied by two-fold increments in the following ranges for the six DNA polymerases as follows: T7 DNA polymerase, E. coli DNA polymerase I F762Y, and Taq DNA polymerase F667Y , 0.02 µM to 1 µM, and T7 DNA polymerase Y526F, E. coli DNA polymerase I and Taq DNA polymerase, 100 to 2,000 µM. The reactions were carried out and the samples were analyzed by denaturing polyacrylamide gel electrophoresis as described in Example 6. Drying of the gel, autoradiography, and Phosphoimager analysis were as described in Example 6. The Table below summarizes the results from this experiment; the values shown for T7 DNA polymerase, E. coli DNA polymerase I F762Y, and Taq DNA polymerase F667Y are the absolute ratios obtained in Example 6 by statistical analysis of the rate of exponential decay in intensity of dideoxy-terminated fragments obtained using a 1:1 ratio of dNTPs to ddNTPs. […] This factor was multiplied by the absolute ratios obtained for T7 DNA polymerase, E. coli DNA polymerase I F762Y, and Taq DNA polymerase F667Y in Example 6 in order to obtain the values shown below for T7 DNA polymerase Y526F, E. coli DNA polymerase I and Taq DNA polymerase, respectively.
`Nc1ncnc2c1ncn2[C@H]1CC[C@@H](COP(=O)(O)OP(=O)(O)OP(=O)(O)O)O1` [ddATP]: the “Incorporation Rate Ratios (dN/ddN)” value is reported as 4,700.

Take `Nc1ccn([C@H]2CC[C@@H](COP(=O)(O)OP(=O)(O)OP(=O)(O)O)O2)c(=O)n1` [ddCTP]: the “Incorporation Rate Ratios (dN/ddN)” value is reported as 2,600.

On to `Nc1nc2c(ncn2[C@H]2CC[C@@H](COP(=O)(O)OP(=O)(O)OP(=O)(O)O)O2)c(=O)[nH]1` [ddGTP], for which the “Incorporation Rate Ratios (dN/ddN)” value is recorded as 1,400.

Turning to `Cc1cn([C@H]2CC[C@@H](COP(=O)(O)OP(=O)(O)OP(=O)(O)O)O2)c(=O)[nH]c1=O` [ddTTP], the “Incorporation Rate Ratios (dN/ddN)” value is given as 4,500.

The target of a further assay is T2, E. coli DNA polymerase I (large fragment, Klenow fragment), wild type (Escherichia coli, UniProt P00582).
T2 construct: The large fragment of E. coli DNA polymerase I, commonly called the Klenow fragment; made in house
T2 sequence (P00582 324-928): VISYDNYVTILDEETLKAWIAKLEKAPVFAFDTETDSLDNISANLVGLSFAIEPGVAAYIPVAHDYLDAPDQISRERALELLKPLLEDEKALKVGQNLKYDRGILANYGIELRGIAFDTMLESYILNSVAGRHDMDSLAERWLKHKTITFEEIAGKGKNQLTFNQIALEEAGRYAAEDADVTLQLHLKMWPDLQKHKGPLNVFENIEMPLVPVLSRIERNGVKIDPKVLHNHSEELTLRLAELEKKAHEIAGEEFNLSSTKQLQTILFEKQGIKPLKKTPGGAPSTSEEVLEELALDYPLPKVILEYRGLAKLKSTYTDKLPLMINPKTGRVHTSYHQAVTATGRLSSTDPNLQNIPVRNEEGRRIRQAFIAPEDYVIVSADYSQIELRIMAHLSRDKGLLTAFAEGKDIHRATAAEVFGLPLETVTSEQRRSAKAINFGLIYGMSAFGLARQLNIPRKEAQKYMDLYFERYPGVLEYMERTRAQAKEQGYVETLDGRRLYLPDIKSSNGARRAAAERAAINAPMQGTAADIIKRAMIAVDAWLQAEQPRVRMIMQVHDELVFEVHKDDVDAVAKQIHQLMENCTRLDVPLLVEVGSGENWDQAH
The description is as above. Format: biochemical. As to conditions: 10 µM 4 dNTPs, ddNTP 100 to 2,000 µM; ddNTP:dNTP ratio giving fragments comparable to E. coli DNA polymerase I F762Y, multiplied by its Example 6 ratio. As to the method:
as §1, §2, §3, §4
In the case of `Nc1ncnc2c1ncn2[C@H]1CC[C@@H](COP(=O)(O)OP(=O)(O)OP(=O)(O)O)O1` [ddATP], the “Incorporation Rate Ratios (dN/ddN)” value was determined as 720.

As for `Nc1ccn([C@H]2CC[C@@H](COP(=O)(O)OP(=O)(O)OP(=O)(O)O)O2)c(=O)n1` [ddCTP], the “Incorporation Rate Ratios (dN/ddN)” value is listed as 250.

In the case of `Nc1nc2c(ncn2[C@H]2CC[C@@H](COP(=O)(O)OP(=O)(O)OP(=O)(O)O)O2)c(=O)[nH]1` [ddGTP], the “Incorporation Rate Ratios (dN/ddN)” value was 140.

Regarding `Cc1cn([C@H]2CC[C@@H](COP(=O)(O)OP(=O)(O)OP(=O)(O)O)O2)c(=O)[nH]c1=O` [ddTTP], the “Incorporation Rate Ratios (dN/ddN)” value is recorded as 1,100.
